According to patent US5182283A, “Heterocyclic compounds their preparation and use” (Novo Nordisk A/S, priority 1990, dated 1993):
Counter-ions that a name gives are not always drawn. Like-named read-outs stand apart in the source and are kept apart here.

Assays:
[1] = biological target: muscarinic acetylcholine receptors; assay: inhibition of specific binding of ^3 H-Oxotremorine-M (^3 H-Oxo) in rat cortex; parameters: species or system male Wistar rats; conditions: read-out: Inhibition in vitro OXO BINDING (IC50, concentration which inhibits the specific binding of ^3 H-Oxo by 50%), ^3 H-Oxotremorine 1.0 nM, 30 min at 25° C., pH 7.4, 25-75% inhibition needed for calculation
Experimental: The pharmacological properties of the compounds of the invention can be illustrated by determining their capability to inhibit the specific binding of ^3 H-Oxotremorine-M (^3 H-Oxo).
^3 H-Oxo labels muscarinic receptor in the CNS (with a preference for agonist domaines of the receptors). Three different sites are labelled by ^3 H-Oxo. […] Using the present experimental conditions only the high and medium affinity sites are determined.
The inhibitory effects of compounds on ^3 H-Oxo binding reflects the affinity for muscarinic acetylcholine receptors.
All preparations are performed at 0°-4° C. unless otherwise indicated. Fresh cortex (0.1-1 g) from male Wistar rats (150-250 g) is homogenized for 5-10 s in 10 ml 20 mM Hepes pH: 7.4, with an Ultra-Turrax homogenizer. The homogenizer is rinsed with 10 ml of buffer and the combined suspension centrifuged for 15 min at 40,000×g. The pellet is washed three times with buffer. In each step the pellet is homogenized as before in 2×10 ml of buffer and centrifuged for 10 min at 40,000×g.
The final pellet is homogenized in 20 mM Hepes pH: 7.4 (100 ml per g of original tissue) and used for binding assay. Aliquots of 0.5 ml is added 25 μl of test solution and 25 μl of ^3 H-Oxotremorine (1.0 nM, final concentration) mixed and incubated for 30 min at 25° C. […] After incubation samples are added 5 ml of ice-cold buffer and poured directly onto Whatman GF/C glass fiber filters under suction and immediately washed 2 times with 5 ml of ice-cold buffer. The amount of radioactivity on the filters are determined by conventional liquid scintillation counting. Specific binding is total binding minus non specific binding.
Test substances are dissolved in 10 ml water (if necessary heated on a steambath for less than 5 minutes) at a concentration of 2.2 mg/ml. 25-75% inhibition of specific binding must be obtained before calculation of IC50.
[formula] where Co is specific binding in control assays and Cx is the specific binding in the test assay. (The calculations assume normal mass-action kinetics).

[2] = in vivo; cited from earlier work
[3] = in vivo; cited from earlier work; remark: listed apart in the source
[4] = system: central and peripheral muscarinic effects; conditions: in vivo; cited from earlier work
[5] = biological target: muscarinic receptor in the CNS; conditions: read-out: affinity of ^3 H-Oxo site, cited from earlier work

CCCCCCOc1nccnc1[C@H]1CN2CC[C@@H]1C2 (relative stereo) [Compound 27, Endo-3-(3-hexyloxypyrazinyl)-1-azabicyclo[2.2.2]heptane hydrochlorid hemihydrate]
IC50 [1]: 46 nM

CCCCCCOc1nccnc1[C@@H]1CN2CC[C@@H]1C2 (relative stereo) [Compound 28, Exo-3-(3-hexyloxypyrazinyl)-1-azabicyclo[2.2.1]heptane hydrochloride]
IC50 [1]: 5.6 nM

COC(=O)C1=CCCN(C)C1 [Arecoline, methyl 1-methyl-1,2,5,6-tetrahydropyridine-3-carboxylate]
biological half life [2]: very short | toxicity [3]: rather toxic | separation between central and peripheral muscarinic effects [4]: small separation

FC(F)(F)C(F)(F)C(F)(F)C(F)(F)CCOc1nccnc1C1=CN2CCC1CC2 [Compound 24, 3-(3-(3,3,4,4,5,5,6,6,6)nonafluorohexyloxypyrazinyl)-1-azabicyclo[2.2.2]oct-2-ene hydrochloride]
IC50 [1]: 490 nM

CCCCCOc1nccnc1C1CN2CCC1CC2 (stereo not shown) [Compound 25, 3-(3-Pentyloxypyrazinl)-1-azabicyclo[2.2.2]octane hydrochloride]
IC50 [1]: 6 nM

C[N+](C)(C)CC#CCN1CCCC1=O [^3 H-Oxo]
Kd ([5]; first of three sites (high affinity)): 1.8 nM | Kd ([5]; second of three sites (medium affinity)): 20 nM | Kd ([5]; third of three sites, not determined under the present conditions): 3000 nM
